Here are results for 11 compounds from ChEMBL document CHEMBL4699529, “Anti-Inflammatory ent-Kaurane Diterpenoids from Isodon serra” (J Nat Prod, 2020).

Data set [1] is described as follows: Inhibition of LPS-induced NO production in mouse BV-2 cells. The data set is classed as functional, cell-based.
Another data set relates to BV-2. Description: Cytotoxicity against mouse BV-2 cells. Format: cell-based.

A value given as a limit tells only on which side of the number the result lay.

One may read the IC50 as the concentration needed to halve the response being measured. A low value points to greater potency. As for `CC(=O)O[C@H]1CCC(C)(C)[C@@H](CO)[C@@]12COC(=O)[C@@]13C[C@@H](CC[C@H]12)[C@@H](C)C3=O`, the IC50 in data set [1] is above 100 µM. In addition, the Activity entry with BV-2 is on record as “Non-Toxic”.
For `CSC(=N)N` the same measures were 3.6 µM and “Non-Toxic”.
For `C=C1[C@@H](OC(C)=O)[C@]23[C@H](O)[C@H]1CC[C@H]2[C@@]12CO[C@]3(O)[C@@H](O)[C@@H]1C(C)(C)CC[C@@H]2OC(C)=O` the same measures were above 100 µM and “Non-Toxic”.
The corresponding values for `C=C1[C@@H]2CC[C@H]3[C@]45CCCC(C)(C)[C@H]4[C@H](O)[C@@](O)(OC5)[C@]3(C2)[C@@H]1O` are above 60 µM and “Non-Toxic”.
As to `CC(=O)O[C@@H]1[C@@](O)(CO)[C@@H]2CC[C@H]3[C@]45CCCC(C)(C)[C@H]4[C@H](OC(C)=O)[C@@](O)(OC5)[C@]13C2`, the IC50 in data set [1] stood at 40.1 µM. Besides, the Activity entry in the data set on BV-2 is “Non-Toxic”.
For `CC(=O)O[C@@H]1[C@@]2(CO2)[C@@H]2CC[C@H]3[C@]45CCCC(C)(C)[C@H]4[C@H](OC(C)=O)[C@@](O)(OC5)[C@]13[C@@H]2O` the same measures were above 100 µM and “Non-Toxic”.
In turn, `CC(=O)O[C@H]1[C@](O)(CO)[C@@H]2CC[C@H]3[C@]45CCCC(C)(C)[C@H]4[C@H](OC(C)=O)[C@@](O)(OC5)[C@]13C2` gave an IC50 in data set [1] of 44.1 µM. Besides, in the data set with BV-2, the Activity result is recorded as “Non-Toxic”.
For `C=C1[C@@H]2CC[C@H]3[C@]45CCCC(C)(C)[C@H]4[C@H](OC(C)=O)[C@@](O)(OC5)[C@]3(C2)[C@@H]1OC(C)=O` the same measures were 26.2 µM and “Non-Toxic”.
For `CC(=O)O[C@H]1[C@]2(CO2)[C@@H]2CC[C@H]3[C@]45CCCC(C)(C)[C@H]4[C@H](OC(C)=O)[C@@](O)(OC5)[C@@]31C2` the same measures were 15.6 µM and “Non-Toxic”.
The compound `C=C1[C@@H]2CC[C@H]3[C@]4(C)CCCC(C)(C)[C@H]4[C@H](OC(C)=O)C(=O)[C@]3(C2)[C@@H]1OC(C)=O` showed an IC50 in data set [1] of 7.3 µM. For the same compound, the Activity entry in the data set on BV-2 is on record as “Non-Toxic”.
The corresponding values for `CC(=O)O[C@@H]1[C@@]2(CO2)[C@@H]2CC[C@H]3[C@]45CCCC(C)(C)[C@H]4[C@H](OC(C)=O)[C@@](O)(OC5)[C@]13C2` are above 100 µM and “Non-Toxic”.
